Assay results: patent US4522944A, “Carboxamido-derivatives of 5H-1,3,4-thiadiazolo[3,2-a]pyrimidines, compositions and use” (priority 1982, dated 1985)

Columns and labels:
[1] = approximate acute toxicity (LD50); conditions: in vivo, po; mouse, per os, single administration of increasing doses, measured on the seventh day after treatment
Description: In view of their high therapeutic index, the compounds of the invention can be used safely in medicine. For example, the approximate acute toxicity (LD50) of the compounds 2-(3-pyridyl)-5-oxo-5H-1,3,4-thiadiazolo[3,2-a]pyrimidine-6-N-(2-pyridyl)-carboxamide and 5-oxo-5H-1,3,4-thiadiazolo[3,2-a]pyrimidine-6-N-(2-pyridyl)-carboxamide in the mouse, determined by single administration of increasing doses and measured on the seventh day after treatment, is higher than 800 mg/kg per os. Analogous toxicity data have been found for other compounds of the invention.

mice = assay: phenylquinone test in mice (analgesic activity); assay type: in vivo; conditions: 50 mg/kg, oral administration
Description: The analgesic activity was assessed, for example, by means of the phenylquinone test in mice according to Siegmund: [Siegmund et al. Proc. Soc. Exper. Biol. Med. 95, 729 (1957)]. In this test the compound FCE 22914, for example, gives a 30% inhibition at 50 mg/kg after oral administration. It is known that certain thiadiazolo-pyrimidine derivatives are endowed with anti-allergic and anti-asthma activity, e.g. those described in Published Japan Patent Application No. J57 142989, but such compounds are devoid of any anti-inflammatory and/or analgesic activity.

[2] = tested on: Reversed Passive Arthus Reaction (RPAR) in rat paw; assay: Reversed Passive Arthus Reaction (RPAR) in rat paw; assay type: in vivo; conditions: oral administration, approximate ED50, read-out: Anti-inflammatory activity, RPAR reaction, ED50
Source text: (§1) The hydroxy protecting groups, for instance, may be removed by mild reaction conditions, e.g. acid hydrolysis.
(B) the Reversed Passive Arthus Reaction (RPAR) in rat paw, induced by the interaction of antigen and antibody resulting in the formation of precipitating immune complex, followed by fixation of complement and accumulation of polymorphonuclear leucocytes at a focal point (D. K. Gemmell, J. Cottney and A. J. Lewis, Agents and Actions 9/1 pag. 107, 1979).
(§2) The following Tables I and II show, for example, the approximate ED50 values of the anti-inflammatory activity in the above mentioned tests, in the rat after oral administration, for a compound of this invention: 2-(3-pyridyl)-5-oxo-5H-1,3,4-thiadiazolo[3,2-a]pyrimidine-6-N-(2-pyridyl)-carboxamide (internal code FCE 22914): […]

[3] = tested on: edema formation in the hind paw; assay: Carrageenin induced oedema (edema formation in the hind paw of rats); assay type: in vivo; conditions: rat, oral administration; approximate ED50; read-out: Anti-inflammatory activity, Carrageenin induced oedema, ED50
Source text: as §1
(A) the edema formation in the hind paw of rats in response to a subplantar injection of carrageenin, according to the method of C. A. Winter et al. (J. Pharmac. Exp. Therap. 1963, 141, 369) and P. Lence (Arch. Int. Pharmacodyn., 1962, 136, 237), and
as §2

SMILES | LD50 at 168 h [1] [mg/kg] | inhibition in phenylquinone test (analgesic activity) (mice) [%] | ED50 [2] [mg/kg] | ED50 [3] [mg/kg]
O=C(Nc1ccccn1)c1cnc2scnn2c1=O [5-oxo-5H-1,3,4-thiadiazolo[3,2-a]pyrimidine-6-N-(2-pyridyl)-carboxamide] | > 800 | – | – | –
O=C(Nc1ccccn1)c1cnc2sc(-c3cccnc3)nn2c1=O [FCE 22914, 2-(3-pyridyl)-5-oxo-5H-1,3,4-thiadiazolo[3,2-a]pyrimidine-6-N-(2-pyridyl)-carboxamide] | > 800 | 30 | 85.2 | 45.9
